Literature values as cited in patent US11766390B2, “Method for dyeing keratinous material, comprising the use of an organosilicon compound, a colored effect pigment and a film-forming polymer II” (Henkel AG & Co. KGaA, priority 2019, dated 2023).

Conditions: for solubility in water: 25° C.

| solubility in water (in words) (at 25° C.) | SMILES | solubility in water |
| --- | --- | --- |
| – | Nc1cc(S(=O)(=O)[O-])cc2cc(S(=O)(=O)[O-])c(N=Nc3ccccc3)c(O)c12.[Na+].[Na+] [Acid Red 33, disodium salt of 5-amino-4-hydroxy-3-(phenylazo)-naphthalene-2,7-disulphonate] | 2.5 g/L |
| highly soluble | O=C([O-])C1=NN(c2ccc(S(=O)(=O)[O-])cc2)C(=O)C1N=Nc1ccc(S(=O)(=O)[O-])cc1.[Na+].[Na+].[Na+] (centres unmarked) [Acid Yellow 23, trisodium salt of 4,5-dihydro-5-oxo-1-(4-sulfophenyl)-4-((4-sulfophenyl)azo)-1H-pyrazole-3-carboxylic acid] | – |
| – | O=S(=O)([O-])c1ccc(N=Nc2c(O)ccc3ccccc23)cc1.[Na+] [Acid Orange 7, sodium salt of 4-[(2-hydroxy-1-naphthyl)azo]benzene sulphonate] | more than 7 g/L |
| – | CCN(Cc1cccc(S(=O)(=O)[O-])c1)c1ccc(C(=C2C=CC(=[N+](CC)Cc3cccc(S(=O)(=O)[O-])c3)C=C2)c2ccccc2S(=O)(=O)[O-])cc1.[Na+].[Na+] [Acid Blue 9] | more than 20 % by weight |
| – | O=C([O-])c1c(Cl)c(Cl)c(Cl)c(Cl)c1-c1c2c(Br)cc(=O)c(Br)c-2oc2c(Br)c(O)cc(Br)c12.O=C([O-])c1c(Cl)c(Cl)c(Cl)c(Cl)c1-c1c2c(Br)cc(=O)c(Br)c-2oc2c(Br)c(O)cc(Br)c12.[Na+].[Na+] [Acid Red 92, disodium salt of 3,4,5,6-tetrachloro-2-(1,4,5,8-tetrabromo-6-hydroxy-3-oxoxanthen-9-yl)benzoic acid] | greater than 10 g/L |
